This note sets out measurements from patent US20240327381A1, “Compounds and Compositions for Selective Degradation of Engineered Proteins” (Celgene Corporation, priority 2023, published 2024).

Read-outs that look alike come from different tables or passages of the source.

One test has as its target T1, Helios (Homo sapiens, UniProt Q9UKS7).
T1 construct: endogenous in cells; host or cells: Jurkat cells, CRISPR/Cas9 knock-in of HiBit at the IKZF2 locus
Nature of the test: Helios degradation in Jurkat/Helios/HiBit cells (Nano-Glo luminescence). The settings on record: 18 hr, read-out: Helios Jurkat Hibit IC50. The test is classed as cell-based. The method, boiled down:
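Jurkat cells carrying CRISPR-knocked-in C-terminal HiBit-tagged endogenous IKZF2 were treated with compound in DMEM/10% FCS (10,000 cells/well) for 18 h at 37 °C. HiBit signal was read by Nano-Glo luminescence after 30 min at RT. EC50 for degradation came from a four-parameter logistic fit, with Ymax as % protein degraded.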
(HiBiT is a short tag that completes a luciferase, so light tracks the accessible tagged protein.)

For test [1], the target named is T2, IKZF1 ZNF2_ZNF3 Q1F degron-tagged CD19 CAR (Homo sapiens, UniProt Q13422, Q146F).
T2 construct: ZNF2_ZNF3 Q1F degron (GERPFFCNQCGASFTQKGNLLRHIKLHSGEKPFKCHLCNYACRRRDALTGHLRTHS); fused on or other part: anti-CD19 scFv, CD28 transmembrane domain, 4-1BB costimulatory domain, CD3 zeta signaling domain (the CAR that carries the degron), and Nluc
Kind of test: Degradation of Q1F degron-tagged CD19 CAR in Jurkat cells (flow cytometry of CAR levels). The class given is cell-based. The method, boiled down:
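Jurkat cells were lentivirally transduced with an anti-CD19 scFv/CD28 TM/4-1BB/CD3ζ CAR tagged with an IKZF1 ZNF2_ZNF3 Q1F degron–Nluc, then treated with compound titrations for 18 h at 37 °C. CAR surface levels were stained (20 min, 4 °C), read by flow cytometry and normalised to untreated cells. EC50 came from a four-parameter logistic fit; Ymin is the minimum % CAR remaining.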
Background: A flow cytometer gives signals particle by particle.

[2] abbreviates: Jurkat cells expressing CD19 CAR tagged with IKZF1 ZNF2_ZNF3 Q1F; 18 hours at 37° C.; CAR levels normalized to untreated cells; read-out: Q1F Jurkat IC50.
The mark [3] stands for this setting: Ymax is the % protein degraded; Jurkat cells expressing Q1F degron-tagged CD19 CAR; 18 hours; read-out: Q1F Jurkat-YMax.
The mark [4] stands for this setting: Jurkat, 18 h, read-out: Q1F Jurkat-YMax.

T1 sequence (Q9UKS7 whole entry): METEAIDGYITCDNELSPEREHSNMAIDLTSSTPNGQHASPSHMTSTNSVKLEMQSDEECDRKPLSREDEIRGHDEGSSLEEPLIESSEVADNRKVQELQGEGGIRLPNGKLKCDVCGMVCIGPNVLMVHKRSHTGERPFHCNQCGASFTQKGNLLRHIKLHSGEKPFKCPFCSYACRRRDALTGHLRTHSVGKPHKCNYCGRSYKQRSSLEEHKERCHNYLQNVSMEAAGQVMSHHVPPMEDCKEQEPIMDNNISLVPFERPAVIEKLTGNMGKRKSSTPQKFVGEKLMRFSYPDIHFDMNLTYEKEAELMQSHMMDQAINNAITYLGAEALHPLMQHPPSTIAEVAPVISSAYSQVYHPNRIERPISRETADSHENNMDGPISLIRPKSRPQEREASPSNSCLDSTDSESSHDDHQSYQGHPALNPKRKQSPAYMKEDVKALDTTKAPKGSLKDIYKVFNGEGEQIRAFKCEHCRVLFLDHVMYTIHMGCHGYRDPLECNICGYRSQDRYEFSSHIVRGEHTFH
T1 sequence (Q96SW2 whole entry, further chain): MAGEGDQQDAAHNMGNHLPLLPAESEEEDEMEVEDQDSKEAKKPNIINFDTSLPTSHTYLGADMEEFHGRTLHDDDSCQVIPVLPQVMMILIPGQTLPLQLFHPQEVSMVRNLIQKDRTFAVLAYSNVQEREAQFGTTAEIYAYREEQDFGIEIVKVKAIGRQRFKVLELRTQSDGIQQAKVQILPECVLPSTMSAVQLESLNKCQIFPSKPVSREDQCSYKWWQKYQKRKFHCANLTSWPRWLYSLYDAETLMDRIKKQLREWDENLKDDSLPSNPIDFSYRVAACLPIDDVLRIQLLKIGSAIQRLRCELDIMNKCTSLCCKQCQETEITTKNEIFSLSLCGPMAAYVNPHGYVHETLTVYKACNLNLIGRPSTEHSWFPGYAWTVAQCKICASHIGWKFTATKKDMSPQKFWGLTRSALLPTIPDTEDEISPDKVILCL
T1 sequence (Q16531 whole entry partner): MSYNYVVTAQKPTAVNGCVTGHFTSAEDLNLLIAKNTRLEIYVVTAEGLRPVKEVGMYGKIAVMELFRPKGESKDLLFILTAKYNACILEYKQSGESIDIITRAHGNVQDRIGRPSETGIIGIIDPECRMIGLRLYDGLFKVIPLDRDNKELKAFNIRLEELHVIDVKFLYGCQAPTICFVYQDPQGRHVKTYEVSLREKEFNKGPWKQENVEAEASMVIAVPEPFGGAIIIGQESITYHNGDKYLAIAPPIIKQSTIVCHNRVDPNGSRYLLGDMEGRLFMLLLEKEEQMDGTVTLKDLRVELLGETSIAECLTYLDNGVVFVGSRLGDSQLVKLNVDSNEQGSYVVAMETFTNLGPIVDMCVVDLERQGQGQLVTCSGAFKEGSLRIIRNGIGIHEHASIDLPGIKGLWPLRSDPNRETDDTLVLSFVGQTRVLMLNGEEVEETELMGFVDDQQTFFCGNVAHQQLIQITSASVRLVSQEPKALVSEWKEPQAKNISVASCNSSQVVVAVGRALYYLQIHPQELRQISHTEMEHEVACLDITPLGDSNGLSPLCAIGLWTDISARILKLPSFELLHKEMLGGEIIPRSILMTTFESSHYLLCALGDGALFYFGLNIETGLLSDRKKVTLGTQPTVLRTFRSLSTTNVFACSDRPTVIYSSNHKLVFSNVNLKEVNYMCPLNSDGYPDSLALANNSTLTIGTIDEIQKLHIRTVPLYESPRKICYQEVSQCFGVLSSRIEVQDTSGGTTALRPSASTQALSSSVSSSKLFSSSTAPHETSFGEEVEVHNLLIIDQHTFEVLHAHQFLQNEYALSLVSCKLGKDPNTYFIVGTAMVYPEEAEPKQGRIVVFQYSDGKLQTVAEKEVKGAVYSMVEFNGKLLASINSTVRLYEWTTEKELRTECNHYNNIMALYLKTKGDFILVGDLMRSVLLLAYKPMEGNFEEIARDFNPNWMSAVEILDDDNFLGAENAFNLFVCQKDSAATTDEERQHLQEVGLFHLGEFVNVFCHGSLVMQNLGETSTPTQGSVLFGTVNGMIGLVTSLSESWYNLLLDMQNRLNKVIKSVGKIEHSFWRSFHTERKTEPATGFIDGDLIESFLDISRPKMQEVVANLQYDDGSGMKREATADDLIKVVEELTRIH
T2 sequence (Q13422 whole entry Q146F, the tested form may be a part): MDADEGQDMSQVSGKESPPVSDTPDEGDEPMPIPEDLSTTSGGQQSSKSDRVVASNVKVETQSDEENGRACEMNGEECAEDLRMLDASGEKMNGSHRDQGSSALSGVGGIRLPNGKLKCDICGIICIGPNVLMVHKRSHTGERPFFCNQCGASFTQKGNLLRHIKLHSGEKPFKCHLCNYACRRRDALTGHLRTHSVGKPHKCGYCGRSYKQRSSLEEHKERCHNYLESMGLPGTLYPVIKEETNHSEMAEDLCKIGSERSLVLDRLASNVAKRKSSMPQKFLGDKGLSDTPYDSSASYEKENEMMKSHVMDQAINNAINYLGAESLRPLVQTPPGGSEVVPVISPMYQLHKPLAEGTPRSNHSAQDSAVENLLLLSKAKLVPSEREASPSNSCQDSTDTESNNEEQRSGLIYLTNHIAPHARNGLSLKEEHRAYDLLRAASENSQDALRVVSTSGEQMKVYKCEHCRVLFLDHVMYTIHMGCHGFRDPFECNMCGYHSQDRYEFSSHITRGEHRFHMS

On to `O=C1CCC(N2Cc3c(cc(F)c(C4C[C@H]5CC[C@@H](C4)N5Cc4ccc(C(F)F)cc4)c3F)C2=O)C(=O)N1` (stereo partly drawn) [Compound 128, 3-(5-((1R,5S)-8-(4-(difluoromethyl)benzyl)-8-azabicyclo[3.2.1]octan-3-yl)-4,6-difluoro-1-oxoisoindolin-2-yl)piperidine-2,6-dione], for which the DC50 at Helios was ≥ 10000 nM; in test [1] (setting [2]) it was 17.4 nM. Further, the Dmax in test [1] (setting [3]) stood at 87.2%.

For `Cc1cc(-c2cc3c(cc2F)C(=O)N(C2CCC(=O)NC2=O)C3)nc(N)c1C` (stereo not drawn) [Compound 34, 3-(5-(6-amino-4,5-dimethylpyridin-2-yl)-6-fluoro-1-oxoisoindolin-2-yl) piperidine-2,6-dione], the DC50 was ≥ 10000 nM at Helios and 7.43 nM in test [1] (setting [2]). For the same compound, the Dmax in test [1] (setting [4]) is 91.7%.

On to `CNC(=O)CN1CCC(c2c(F)cc3c(c2F)CN(C2CCC(=O)NC2=O)C3=O)CC1` (stereo not drawn) [Compound 122, 2-(4-(2-(2,6-dioxopiperidin-3-yl)-4,6-difluoro-1-oxoisoindolin-5-yl)piperidin-1-yl)-N-methylacetamide], for which the values for the DC50 (on Helios; in test [1] (setting [2])) were ≥ 10000 nM and 65.1 nM, respectively. For the same compound, the Dmax in test [1] (setting [3]) was 74.2%.

In the case of `Cc1nc(C)c(S(=O)(=O)N(C)CCN2CCC(O)(c3c(F)cc4c(c3F)CN(C3CCC(=O)NC3=O)C4=O)CC2)s1` (stereo not drawn) [Compound 39, N-[2-[4-[2-(2,6-dioxo-3-piperidyl)-4,6-difluoro-1-oxo-isoindolin-5-yl]-4-hydroxy-1-piperidyl]ethyl]-N,2,4-trimethyl-thiazole-5-sulfonamide], the DC50 at Helios was ≥ 10000 nM; in test [1] (read-out: Q1F Jurkat IC50; Jurkat cells expressing CD19 CAR tagged with IKZF1 ZNF2_ZNF3 Q1F; 18 hours at 37° C.; CAR levels normalized to untreated cells) it was 93.8 nM. Further, the Dmax in test [1] (setting [4]) amounted to 58.9%.

For `O=C1CCC(N2Cc3c(cc(F)c(C4(O)CCN(Cc5ccc(C(F)F)cc5)CC4)c3F)C2=O)C(=O)N1` (stereo not drawn) [Compound 19, 3-(5-(1-(4-(difluoromethyl)benzyl)-4-hydroxypiperidin-4-yl)-4,6-difluoro-1-oxoisoindolin-2-yl)piperidine-2,6-dione], the DC50 at Helios is ≥ 10000 nM; in test [1] (setting [2]) it was 5.41 nM. In addition, in test [1] (setting [3]), the Dmax worked out at 83.3%.

Turning to `O=C1CCC(N2Cc3c(cc(F)c(C4CCN(Cc5nc(-c6ccccc6)no5)CC4)c3F)C2=O)C(=O)N1` (stereo not drawn) [Compound 99, 3-(4,6-difluoro-1-oxo-5-(1-((3-phenyl-1,2,4-oxadiazol-5-yl)methyl)piperidin-4-yl)isoindolin-2-yl)piperidine-2,6-dione], the DC50 on Helios was ≥ 10000 nM; in test [1] (setting [2]) it was 369 nM. In addition, the Dmax in test [1] (setting [3]) is 58.6%.

As to `O=C1CCC(N2Cc3cc(C4CCN(Cc5ccc6[nH]ccc6c5)CC4)c(F)cc3C2=O)C(=O)N1` (stereo not drawn) [Compound 89, 3-(5-(1-((1H-indol-5-yl)methyl)piperidin-4-yl)-6-fluoro-1-oxoisoindolin-2-yl)piperidine-2,6-dione], the DC50 at Helios is ≥ 10000 nM; in test [1] (setting [2]) it was 2.67 nM. In test [1] (setting [3]), the Dmax is 94.2%.

`CS(=O)(=O)CCCN1CCC(c2c(F)cc3c(c2F)CN(C2CCC(=O)NC2=O)C3=O)CC1` (stereo not drawn) [Compound 121, 3-(4,6-difluoro-5-(1-(3-(methylsulfonyl)propyl)piperidin-4-yl)-1-oxoisoindolin-2-yl)piperidine-2,6-dione]: the DC50 on Helios was ≥ 10000 nM; in test [1] (setting [2]) it was 20.4 nM. Besides, the Dmax in test [1] (setting [3]) worked out at 76.7%.

For `O=C1CCC(N2Cc3c(cc(F)c(C4CCN(Cc5ccc6c(c5)CCC6)CC4)c3F)C2=O)C(=O)N1` (stereo not drawn) [Compound 60, 3-(5-(1-((2,3-dihydro-1H-inden-5-yl)methyl)piperidin-4-yl)-4,6-difluoro-1-oxoisoindolin-2-yl)piperidine-2,6-dione], the DC50 at Helios was ≥ 10000 nM; in test [1] (setting [2]), 0.691 nM. Moreover, the Dmax in test [1] (setting [3]) came out at 91.8%.

`Cc1ccc(CN2CCC(O)(c3c(F)cc4c(c3F)CN(C3CCC(=O)NC3=O)C4=O)CC2)cc1C` (stereo not drawn) [Compound 43, 3-[5-[1-[(3,4-dimethylphenyl)methyl]-4-hydroxy-4-piperidyl]-4,6-difluoro-1-oxo-isoindolin-2-yl]piperidine-2,6-dione]: the figures for the DC50 (at Helios; in test [1] (setting [2])) were ≥ 10000 nM and 2.75 nM, respectively. For the same compound, in test [1] (setting [3]), the Dmax was determined as 80.2%.
